The text below walks through data of US9376506B2, “Method for producing sialic-acid-containing sugar chain” (GLYTECH, INC., priority 2011, dated 2016).

Molecules are shown by their SMILES. Where two headings read alike, the source gives them in different places.

Series [1] deals with T1, ST6Gal-I (Homo sapiens, UniProt P15907).
T1 sequence (P15907 1-406): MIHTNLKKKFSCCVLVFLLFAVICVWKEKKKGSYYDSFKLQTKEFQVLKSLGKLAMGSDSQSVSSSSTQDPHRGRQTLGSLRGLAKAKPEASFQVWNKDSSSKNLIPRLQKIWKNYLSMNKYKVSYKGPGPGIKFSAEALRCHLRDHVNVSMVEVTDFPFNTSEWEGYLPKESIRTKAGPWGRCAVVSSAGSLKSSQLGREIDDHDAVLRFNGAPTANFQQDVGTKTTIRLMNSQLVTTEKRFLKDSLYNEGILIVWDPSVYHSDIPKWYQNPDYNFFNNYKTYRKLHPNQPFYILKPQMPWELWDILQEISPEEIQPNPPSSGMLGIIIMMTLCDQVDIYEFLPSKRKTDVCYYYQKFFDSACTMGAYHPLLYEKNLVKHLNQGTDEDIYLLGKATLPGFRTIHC
Particulars: 0.25 mM CMP, cited from earlier work.

The nature of series [2]: Stability of CMP-Neu5Ac (CMP formation, HPLC). It counts as physicochemical. Particulars: 5 mM CMP-Neu5Ac/0.1 M MOPS (pH 7.3), after 24 hours. The protocol:
In order to confirm whether CMP was formed by the degradation of the substrate donor CMP-Neu5Ac, 5 mM CMP-Neu5Ac/0.1 M MOPS (pH 7.3) was incubated at 25° C., 30° C., 33° C., or 37° C., and the amount of CMP formed was measured. The measurement was performed by HPLC using a column TSKgel SuperQ-5PW (7.5×75 mm; Tosoh Corp.) and 50 mM KPi (pH 8.0) as a solvent. A UV detector (detection wavelength: 254 nm) was used for the detection. The degree of CMP formation was indicated by [Peak area of CMP]/[Peak area of CMP+Peak area of CMP-Neu5Ac]×100(%). After 24 hours, 45% CMP was formed at 37° C., whereas 21% CMP was formed at 30° C., which was about half of that formed at 37° C.

In the case of `Nc1ccn([C@@H]2O[C@H](COP(=O)(O)O)[C@@H](O)[C@H]2O)c(=O)n1` [CMP, cytidine monophosphate], the “product inhibition of ST6Gal-I by CMP” value was 49% in series [1] (Non Patent Literature 5) and 71% in series [1] (Non Patent Literature 6).
`CC(=O)N[C@H]1[C@H]([C@H](O)[C@H](O)CO)O[C@](OP(=O)(O)OC[C@H]2O[C@@H](n3ccc(N)nc3=O)[C@H](O)[C@@H]2O)(C(=O)O)C[C@@H]1O` [CMP-Neu5Ac, CMP-N-acetylneuraminic acid]: the “CMP formed, [Peak area of CMP]/[Peak area of CMP+Peak area of CMP-Neu5Ac]×100” value came out at 21% in series [2] (30° C.) and 45% in series [2] (37° C.).
